The values below come from BindingDB's records for doi:10.7270/Q2NC5ZS3 (Burnham Center For Chemical Genomics, 2012).

Bounds are passed on as bounds.

The test has as its target T1, Corticotropin-releasing factor-binding protein (Homo sapiens, UniProt P24387).
T1 sequence (P24387 whole entry): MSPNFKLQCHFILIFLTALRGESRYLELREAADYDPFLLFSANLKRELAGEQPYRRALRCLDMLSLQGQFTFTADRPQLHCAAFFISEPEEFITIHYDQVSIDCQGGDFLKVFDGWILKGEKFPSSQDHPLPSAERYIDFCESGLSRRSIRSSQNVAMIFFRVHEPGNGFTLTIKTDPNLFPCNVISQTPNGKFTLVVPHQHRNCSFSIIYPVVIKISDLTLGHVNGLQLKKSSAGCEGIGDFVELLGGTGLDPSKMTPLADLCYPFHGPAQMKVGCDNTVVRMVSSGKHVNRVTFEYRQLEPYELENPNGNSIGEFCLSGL
In the case of `N#CC(C(=O)COc1ccc(Cl)cc1)c1nc2ccccc2s1` (centres undefined), the IC50 (in general, the concentration needed to halve the response being measured) was greater than 20 µM.
For `O=C(O)c1ccc(CN=Nc2cccc(C(F)(F)F)c2)cc1` the value was greater than 20 µM; for `Cc1ccc2nc(N3C(=O)C(=O)C(C(=O)c4ccco4)C3c3cccc(O)c3)sc2c1` (centres undefined), greater than 20 µM.
The result for `Cc1cc(=O)oc2c1ccc1oc(C(N=O)c3ccccc3)c(C)c12` (centres undefined) [4,9-dimethyl-8-(N-oxidanyl-C-phenyl-carbonimidoyl)furo[2,3-h]chromen-2-one] reads greater than 20 µM; that for `COC(=O)c1ccc(C(=O)C(C#N)c2nc3ccccc3s2)cc1` (centres undefined) [4-[(2Z)-2-(3H-1,3-benzothiazol-2-ylidene)-2-cyano-1-oxoethyl]benzoic acid methyl ester], greater than 20 µM.
The result for `Cc1ccc2nc(N3C(=O)C(=O)C(C(=O)c4ccc(C)o4)C3c3cccc(O)c3)sc2c1` (centres undefined) [4-hydroxy-2-(3-hydroxyphenyl)-1-(6-methyl-1,3-benzothiazol-2-yl)-3-(5-methylfuran-2-carbonyl)-2H-pyrrol-5-one] reads 10.4 µM.
Consider `N#CC(C(=O)Cc1cccc2ccccc12)c1nc2ccccc2s1` (centres undefined) [(2Z)-2-(3H-1,3-benzothiazol-2-ylidene)-4-naphthalen-1-yl-3-oxobutanenitrile], for which the IC50 is 11.3 µM.
The result for `COc1ccc(/C=N/OCC(=O)NNC2=c3cc(Br)ccc3=NC2=O)cc1` [MLS000587830] reads greater than 20 µM; that for `COc1ccc(C(C)N=Nc2ccc([N+](=O)[O-])cc2S(=O)(=O)Nc2ccccc2C(=O)O)c(OC)c1` (centres undefined) [MLS002249507], 9.4 µM; that for `Cn1c(O)c(N=Nc2ccc([N+](=O)[O-])cc2)sc1=S` [MLS002608645], 1 µM.
The result for `CN1c2ccccc2C(=O)C(C(=S)Nc2ccc(Cl)cc2)S1(=O)=O` (centres undefined) [N-(4-chlorophenyl)-4-hydroxy-1-methyl-2,2-dioxo-1,2-dihydro-2lambda~6~,1-benzothiazine-3-carbothioamide] reads greater than 20 µM; that for `O=NCc1ccc(Oc2ccc(F)cc2)c([N+](=O)[O-])c1` [N-[[4-(4-fluorophenoxy)-3-nitrophenyl]methylidene]hydroxylamine], 17.5 µM.
For `Cc1ccc(-n2[nH]c(C)c(CN=Nc3ccc([N+](=O)[O-])cc3[N+](=O)[O-])c2=O)cc1` [SMR000171521] the value was 15.5 µM; for `Cc1ccc(S(=O)(=O)N(CC(=O)NNC2=c3ccccc3=NC2=O)c2ccc(C)c(C)c2)cc1` [SMR000207608], greater than 20 µM.
